Columns and labels:
Test in all cases: relative viability (nuclei count vs DMSO), 5 days (fraction); higher = more cells survive
[1] = compound: C(C(=O)C(=O)O)Br [Bromopyruvate]
Procedure, shortened: (§1)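 Lung cancer cell lines were seeded into 1536-well plates, kept overnight at 37 °C and pinned with five library-drug doses (not always all listed) spaced by √10. After 5 days, nuclei were Hoechst-stained, imaged at 4× and counted with MetaXpress. Viability is treated-well nuclei over vehicle-well nuclei, taken as a median across plates. Plates needed control CV below 25% and at least one doubling.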

[2] = compound: CC(O)(CS(=O)(=O)c1ccc(F)cc1)C(=O)Nc1ccc(C#N)c(C(F)(F)F)c1 [Bicalutamide]
Procedure, shortened: as §1

[3] = compound: C(C(=O)C(=O)O)Br [Bromopyruvate] + CC1(C)CCC(c2ccc(Cl)cc2)=C(CN2CCN(c3ccc(C(=O)NS(=O)(=O)c4ccc(N[C@H](CCN5CCOCC5)CSc5ccccc5)c(S(=O)(=O)C(F)(F)F)c4)cc3)CC2)C1 [Navitoclax] (partner 0.5 µM)
Procedure, shortened: (§2)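 Lung cancer cell lines were seeded in 1536-well plates and dosed by pin tool the next day, with either a single drug or a fixed anchor-drug dose combined with five library-drug doses (not always all listed) spaced in √10 steps. Five days later, one step fixed the cells and stained their nuclei (final 0.05% Triton X-100, 1% formaldehyde, 1 ug/ml Hoechst), and nuclei were counted on 4× images. Relative viability is the nuclei count in treated wells divided by the count in vehicle wells, and each value is the median of duplicate plates.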

[4] = compound: C(C(=O)C(=O)O)Br [Bromopyruvate] + COc1cc2c(Oc3ccc(NC(=O)C4(C(=O)Nc5ccc(F)cc5)CC4)cc3F)ccnc2cc1OCCCN1CCOCC1 [Foretinib] (partner 0.25 µM)
Procedure, shortened: as §2

Cell Line	relative viability ([1]; 1 µM)	relative viability ([1]; 3.162 µM)	relative viability ([1]; 10 µM)	relative viability ([1]; 31.62 µM)	relative viability ([1]; 100 µM)	relative viability ([2]; 0.08 µM)	relative viability ([2]; 0.253 µM)	relative viability ([2]; 0.8 µM)	relative viability ([2]; 2.53 µM)	relative viability ([3]; first compound 1 µM)	relative viability ([3]; first compound 3.162 µM)	relative viability ([3]; first compound 10 µM)	relative viability ([3]; first compound 31.62 µM)	relative viability ([3]; first compound 100 µM)	relative viability ([4]; first compound 1 µM)	relative viability ([4]; first compound 3.162 µM)	relative viability ([4]; first compound 10 µM)	relative viability ([4]; first compound 31.62 µM)	relative viability ([4]; first compound 100 µM)
NCI-H1395	1.07	0.896	0.955	0.787	1.1	1.05	0.9	1.03	0.82	1.24	1.24	1.28	1.17	1.21	0.975	0.838	1.14	1.03	1.01
NCI-H1993	0.833	1.01	1.1	0.945	0.951	0.896	0.811	0.987	0.996	1.02	0.96	0.925	1.09	0.901	0.84	0.817	0.939	0.764	0.774
LU99A	0.852	0.913	0.977	0.967	1.03	0.926	0.885	1.22	0.755	0.767	0.696	0.834	0.558	0.411	0.834	0.81	0.812	0.773	0.846
NCI-H1355	1.01	1.03	1.08	0.959	0.953	1.03	0.918	1.09	0.946	0.936	0.982	1	0.901	0.91	0.954	0.966	1.08	0.909	0.995
HCC-78	1.08	0.971	1.02	0.94	0.993	0.941	0.991	1.22	0.985	0.386	0.759	0.977	0.893	0.886	0.55	0.533	0.589	0.539	0.532
HCC-15	1.03	1.06	1.08	0.981	0.957	1.02	0.973	1.15	1	0.697	0.723	0.759	0.765	0.657	1	1.05	1.07	1.08	1.02
EKVX	0.988	0.973	1.06	1.01	0.969	1.02	0.984	1.09	0.914	0.887	0.995	1.06	0.95	1.07	0.83	0.779	0.929	0.819	1.34
NCI-H2126	1.03	0.995	1.05	0.958	1.03	0.967	0.949	1.01	0.95	0.827	0.9	0.906	0.856	0.873	1.17	1.39	1.2	1.26	1.31
LK-2	0.98	1.02	1.11	0.936	0.832	0.961	0.825	1.31	1.02	0.9	0.85	0.818	0.888	0.772	0.865	1.35	1.57	1.12	0.894
NCI-H1437	1.05	0.961	1.04	0.972	1	0.997	0.966	1.07	0.984	1.11	1.09	1.11	1.09	1.17	1.26	1.28	1.27	1.28	1.25
COR-L23	1.02	0.913	1.19	1.03	0.723	1.03	1.01	1.18	0.877	0.77	1.05	1.12	0.851	0.401	0.905	0.914	1.02	0.971	0.434
PC-14	1.05	1.07	1.09	0.997	0.943	1.02	1.01	1.15	0.976	1.02	1.02	1.07	1.02	1.01	0.945	0.939	1.02	0.848	0.981
A549	0.942	0.969	1.18	0.95	1.06	0.974	0.875	1.16	0.973	1.23	1.22	1.36	1.22	1.33	0.949	0.935	1.07	0.989	1.06
A-427	1.05	1.09	1.16	0.967	1.1	0.996	1.02	1.17	0.869	0.967	0.876	0.895	1.02	1.04	0.983	1.21	1.18	0.799	0.885
LCLC-97TM1	1.02	1.06	1	0.974	0.859	1.04	0.974	1.29	0.862	–	–	0.538	0.492	0.316	0.843	0.916	0.917	0.965	1.02
NCI-H1703	0.914	0.981	0.955	0.94	0.778	0.941	1.01	0.983	0.738	1.06	1.22	1.42	1.34	1.16	0.327	0.397	0.364	0.367	0.356
RERF-LC-KJ	1.04	1.02	1.13	1.02	0.98	1.01	0.985	1.15	0.982	1.05	0.822	1.05	0.868	0.98	0.843	0.918	0.962	0.818	0.869

— the supplement of paper PMC10307832
